In patent US20260256751A1, “COMBINATION OF BETA-2-ADRENERGIC RECEPTOR AGONISTS AND GLP-1 RECEPTOR AGONISTS FOR USE IN TREATING HYPERGLYCAEMIA” (ATROGI AB, priority 2023, published 2026):

Legend:
[1] = system: differentiated L6-myotubes; experiment: cAMP production relative to isoprenaline (Biological example 2 of WO 2019/053427); format: cell-based; settings: 0.25 h, compound at 10 μM, activity relative to isoproterenol at 10 μM
Method in brief: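 Values are cAMP levels relative to isoprenaline at equal concentration (final 1×10^−5 M for both). Stimulation lasted 15 min in differentiated L6 myotubes, using HBSS buffer (pH 7.4) containing 1 mM IBMX, 5 mM HEPES and 1% BSA.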

[2] = system: differentiated L6-myotubes; experiment: Glucose uptake screen (Biological example 1 of WO 2019/053427); format: cell-based; settings: compound at 10 μM, activity relative to isoproterenol at 10 μM, read-out: Biological example 1 of WO 2019/053427 (GU)
Method in brief: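 Uptake was read out as ^3H-2-deoxyglucose (50 nM, 10 min) radioactivity in NaOH lysates. Beforehand, overnight-starved, differentiated L6 myotubes received compound at 1×10^−5 M with ICI-118551 present for 1 h 40 min, followed by fresh agonist for a further 20 min in glucose-free medium.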

SMILES | Emax at 10 µM [1] [%] | Emax at 10 µM [2] [%]
O[C@H](c1cccc(F)c1)C12CCC(Cc3ccc(OC(F)(F)F)cc3)(CC1)N2 [Compound 501, (R)-(m-fluorophenyl){4-[(p-trifluoromethoxyphenyl)methyl]-7-azabicyclo[2.2.1]hept-1-yl}methanol] | < 25 | < 25
CS(=O)(=O)N(Cc1ccccc1)[C@H]1CC[C@H](C[C@@H]2CC[C@H]([C@H](O)c3cccc(F)c3)N2)CC1 [Compound 502, (R)-[(2R,5S)-5-({(1r,4S)-4-[(benzyl)-N-mesylamino]cyclohexyl}methyl)-2-pyrrolidinyl](m-fluorophenyl)methanol] | < 25 | < 25
CS(=O)(=O)N(Cc1ccccc1)[C@H]1CC[C@H](C[C@@H]2CC[C@H]([C@@H](O)c3cccc(F)c3)N2)CC1 [Compound 503, (S)-[(2R,5S)-5-({(1r,4S)-4-[(benzyl)-N-mesylamino]cyclohexyl}methyl)-2-pyrrolidinyl](m-fluorophenyl)methanol] | < 25 | < 25
CS(=O)(=O)N[C@H]1CC[C@H](C[C@@H]2CC[C@H]([C@H](O)c3cccc(F)c3)N2)CC1 [Compound 504, (R)-[(2R,5S)-5-{[(1r,4S)-4-(mesylamino)cyclohexyl]methyl}-2-pyrrolidinyl](m-fluorophenyl)methanol] | < 25 | 50 to 75
CS(=O)(=O)N[C@H]1CC[C@H](C[C@@H]2CC[C@H]([C@@H](O)c3cccc(F)c3)N2)CC1 [Compound 505, (S)-[(2R,5S)-5-{[(1r,4S)-4-(mesylamino)cyclohexyl]methyl}-2-pyrrolidinyl](m-fluorophenyl)methanol] | < 25 | < 25
CC(=O)N(C)[C@H]1CC[C@H](CC(C)(C)NC[C@H](O)c2cncc(F)c2)CC1 [Compound 506, N-[(1R,4r)-4-{2-[(R)-2-(5-fluoro-3-pyridyl)-2-hydroxyethylamino]-2-methylpropyl}cyclohexyl]-N-methylacetamide] | 25 to 50 | > 75
CC(=O)N(C)[C@H]1CC[C@@H](CC(C)(C)NC[C@H](O)c2cncc(F)c2)CC1 [Compound 507, N-[(1S,4s)-4-{2-[(R)-2-(5-fluoro-3-pyridyl)-2-hdyroxyethylamino]-2-methylpropyl}cyclohexyl]-n-methylacetamide] | < 25 | 50 to 75
CS(=O)(=O)N(Cc1ccccc1)[C@H]1CC[C@@H](C[C@@H]2CC[C@H]([C@H](O)c3cccc(F)c3)N2)CC1 [Compound 508, (R)-[(2R,5S)-5-({(1s,4R)-4-[(benzyl)-N-mesylamino]cyclohexyl}methyl)-2-pyrrolidinyl](m-fluorophenyl)methanol] | < 25 | < 25
CS(=O)(=O)N(Cc1ccccc1)[C@H]1CC[C@@H](C[C@@H]2CC[C@H]([C@@H](O)c3cccc(F)c3)N2)CC1 [Compound 509, (S)-[(2R,5S)-5-({(1s,4R)-4-[(benzyl)-N-mesylamino]cyclohexyl}methyl)-2-pyrrolidinyl](m-fluorophenyl)methanol] | < 25 | < 25
CS(=O)(=O)N[C@H]1CC[C@@H](C[C@@H]2CC[C@H]([C@H](O)c3cccc(F)c3)N2)CC1 [Compound 510, (R)-[(2R,5S)-5-{[(1s,4R)-4-(mesylamino)cyclohexyl]methyl}-2-pyrrolidinyl](m-fluorophenyl)methanol] | < 25 | > 75
CS(=O)(=O)N[C@H]1CC[C@@H](C[C@@H]2CC[C@H]([C@@H](O)c3cccc(F)c3)N2)CC1 [Compound 511, (S)-[(2R,5S)-5-{[(1s,4R)-4-(mesylamino)cyclohexyl]methyl}-2-pyrrolidinyl](m-fluorophenyl)methanol] | < 25 | 25 to 50
CS(=O)(=O)N(Cc1ccccc1)c1cccc(CC23CCC([C@@H](O)c4cccc(F)c4)(CC2)N3)c1 [Compound 512, (S)-[4-({m-[(benzyl)-N-mesylamino]phenyl}methyl)-7-azabicyclo[2.2.1]hept-1-yl](m-fluorophenyl)methanol] | < 25 | < 25
CS(=O)(=O)N(Cc1ccccc1)c1cccc(CC23CCC([C@H](O)c4cccc(F)c4)(CC2)N3)c1 [Compound 513, (R)-[4-({m-[(benzyl)-N-mesylamino]phenyl}methyl)-7-azabicyclo[2.2.1]hept-1-yl](m-fluorophenyl)methanol] | < 25 | 25 to 50
CS(=O)(=O)Nc1cccc(CC23CCC([C@@H](O)c4cccc(F)c4)(CC2)N3)c1 [Compound 514, (S)-(m-fluorophenyl)(4-{[m-(mesylamino)phenyl]methyl}-7-azabicyclo[2.2.1]hept-1-yl)methanol] | < 25 | 50 to 75
CS(=O)(=O)Nc1cccc(CC23CCC([C@H](O)c4cccc(F)c4)(CC2)N3)c1 [Compound 515, (R)-(m-fluorophenyl)(4-{[m-(mesylamino)phenyl]methyl}-7-azabicyclo[2.2.1]hept-1-yl)methanol] | 25 to 50 | 50 to 75
CC(C)(C[C@H]1CC[C@H](S(N)(=O)=O)CC1)NC[C@H](O)c1cccc(F)c1 [Compound 516, (1R,4r)-4-{2-[(R)-2-(m-fluorophenyl)-2-hydroxyethylamino]-2-methylpropyl}cyclohexanesulfonamide] | < 25 | > 75
CC(C)(C[C@H]1CC[C@@H](S(N)(=O)=O)CC1)NC[C@H](O)c1cccc(F)c1 [Compound 517, (1S,4s)-4-{2-[(R)-2-(m-fluorophenyl)-2-hydroxyethylamino]-2-methylpropyl}cyclohexanesulfonamide] | < 25 | 25 to 50
CC(C)(C[C@H]1CC[C@H](S(N)(=O)=O)CC1)NC[C@H](O)c1cncc(F)c1 [Compound 518, (1R,4r)-4-{2-[(R)-2-(5-fluoro-3-pyridyl)-2-hydroxyethylamino]-2-methylpropyl}cyclohexanesulfonamide] | < 25 | 50 to 75
CC(C)(C[C@H]1CC[C@@H](S(N)(=O)=O)CC1)NC[C@H](O)c1cncc(F)c1 [Compound 519, (1S,4s)-4-{2-[(R)-2-(5-fluoro-3-pyridyl)-2-hydroxyethylamino]-2-methylpropyl}cyclohexanesulfonamide] | < 25 | > 75
CN([C@H]1CC[C@@H](CC(C)(C)NC[C@H](O)c2cncc(F)c2)CC1)S(C)(=O)=O [Compound 520, (R)-2-{1,1-dimethyl-2-[(1s,4S)-4-(N-mesyl-N-methylamino)cyclohexyl]ethylamino}-1-(5-fluoro-3-pyridyl)-1-ethanol] | < 25 | 50 to 75
CN([C@H]1CC[C@H](CC(C)(C)NC[C@H](O)c2cncc(F)c2)CC1)S(C)(=O)=O [Compound 521, (R)-2-{1,1-dimethyl-2-[(1r,4R)-4-(N-mesyl-N-methylamino)cyclohexyl]ethylamino}-1-(5-fluoro-3-pyridyl)-1-ethanol] | < 25 | 50 to 75
CC(C)(C[C@H]1CC[C@@H](NS(=O)(=O)C(F)(F)F)CC1)NC[C@H](O)c1cncc(F)c1 [Compound 522, (R)-2-{1,1-dimethyl-2-[(1s,4S)-4-(trifluoromesylamino)cychloehxyl]ethylamino}-1-(5-fluoro-3-pyridyl)-1-ethanol] | < 25 | > 75
CCCS(=O)(=O)N[C@H]1CC[C@@H](CC(C)(C)NC[C@H](O)c2cncc(F)c2)CC1 [Compound 523, (R)-2-{1,1-dimethyl-2-[(1s,4S)-4-(propylsulfonylamin)cyclohexyl]ethylamino}-1-(5-fluoro-3-pyridyl)-1-ethanol] | < 25 | 50 to 75
CCS(=O)(=O)N[C@H]1CC[C@@H](CC(C)(C)NC[C@H](O)c2cccc(F)c2)CC1 [Compound 524, (R)-2-{1,1-dimethyl-2-[(1s,4S)-4-(ethylsulfonylamino)cyclohexyl]ethylamino}-1-(m-fluorophenyl)-1-ethanol] | < 25 | 50 to 75
CCS(=O)(=O)N[C@H]1CC[C@H](CC(C)(C)NC[C@H](O)c2cncc(F)c2)CC1 [Compound 525, (R)-2-{1,1-dimethyl-2-[(1r,4R)-4-(ethylsulfonylamino)cyclohexyl]ethylamino}-1-(5-fluoro-3-pyridyl)-1-ethanol] | < 25 | 50 to 75
CC(C)CS(=O)(=O)N[C@H]1CC[C@H](CC(C)(C)NC[C@H](O)c2cncc(F)c2)CC1 [Compound 526, (R)-2-{1,1-dimethyl-2-[(1r,4R)-4-(isobutylsulfonylamino)cyclohexyl]ethylamino}-1-(5-fluoro-3-pyridyl)-1-ethanol] | < 25 | 50 to 75
O[C@@H](c1cccc(F)c1)C12CCC(CCc3ccc(Cl)cc3)(CC1)N2 [Compound 527, (S)-{4-[2-(p-chlorophenyl)ethyl]-7-azabicyclo[2.2.1]hept-1-yl}(m-fluorophenyl)methanol] | < 25 | < 25
O[C@H](c1cccc(F)c1)C12CCC(CCc3ccc(Cl)cc3)(CC1)N2 [Compound 528, (R)-{4-[2-(p-chlorophenyl)ethyl]-7-azabicyclo[2.2.1]hept-1-yl}(m-fluorophenyl)methanol] | < 25 | < 25
O[C@@H](c1cncc(F)c1)C12CCC(C/C=C/c3ccccc3)(CC1)N2 [Compound 529, (S)-{4-[(E)-3-phenyl-2-propenyl]-7-azabicyclo[2.2.1]hept-1-yl}(5-fluoro-3-pyridyl)methanol] | < 25 | 25 to 50
